Reference: publication PMC4700278, “Molecular and Biochemical Analysis of the Estrogenic and Proliferative Properties of Vitamin E Compounds” (Frontiers in Oncology, 2016)

Experiments:
[1] = tested on: ER-dependent transcription in MELN cells; test: ERE-luciferase reporter assay in MELN cells (MCF-7 stably transfected with ERE-β-globin-tk-Luc); format: cell-based, human; details: 500 μM, maximal response = 10 nM E2
Description: MELN cells were established by transfecting ER(+) MCF-7 cells with the ERE-β-globin-tk-Luc-SV-Neo plasmid ([36]). HELN cells were generated by transfection of ER(−) HeLa cells with this plasmid. The HELN-ERα, HELN-ERβ, HELN-ΔAB-ERα, and HELN-ΔAB-ERβ cell lines then underwent a second transfection with the corresponding pSG5-puro plasmids (pSG5-ERα-puro, pSG5-ERβ-puro, pSG5-ΔAB-ERα-puro, and pSG5-ΔAB-ERβ-puro, respectively) and expressed wild-type or mutated ERα or ERβ ([39], [40]). […] Comparison of the activities toward hERα and hERβ with the truncated ΔAB-ERα and ΔAB-ERβ provides a powerful model to identify partial ER agonists (requiring ligand-independent AF-1 to induce maximal ER activation). […] Cells were grown routinely in DMEM growth medium supplemented with 5% FBS (Gibco BRL, Life Technologies, Cergy pontoise, France). Cells were incubated at 37°C in a humidified 5% CO2 incubator. For experiments, cells were grown for 5 days in phenol red-free medium, containing 6% dextran-coated charcoal-treated FCS (DCC-FCS) with penicillin–streptomycin. Medium was changed after 2 days. On day 5, cells were treated or not with the compounds, which were dissolved in ethanol. For each condition, 15 × 10^3 cells were seeded per well in 12-well plates and treated, as described above, for 8 h in a final volume of 0.5 ml. At the end of the treatment, cells were washed with PBS and lysed in 150 μl lysis buffer (Promega, Charbonnières, France). Luciferase activity was measured using the luciferase assay reagent (Promega), according to the manufacturer’s instructions. Protein concentrations were measured using the Bradford technique ([41]) to normalize the luciferase activity data. For each condition, average luciferase activity was calculated from the data of three independent wells.
Figure 3 Measurement of estrogenicity of tocols in vitro. (A) Dose–response curve of the effect of tocols on MCF-7 cells stably transfected with the ERE-β-globin-tk-Luc plasmid (MELN cells). […] Data shown are the mean values ± SEM from three independent experiments. […] MCF-7 extracts were analyzed for the presence of ERα by western blotting using GAPDH as a control. […] The western blot shown is representative of three independent experiments. The ratio of ERα to GAPDH levels in each experiment was determined densitometrically and normalized to control value (taken to be 1). (D) Effect of δ-tocols on estrogen response element-dependent luciferase activity in HELN cells, which are HELA cells transfected with either fully functional ERα or ERβ or their mutated versions containing a deletion the AB domain (ΔAB). […] Data shown are the mean values ± SEM from three independent experiments. […] Cells were treated with 500 μM δ-tocols in the presence or in the absence of ICI. The relative expression of TGFα, PR, and Ps2 (TFF1) after 16 h was analyzed by quantitative RT-PCR. Data shown are the mean values ± SEM from three independent experiments.

MCF-7 (ER(+)) cells = test: Cell proliferation assay (sulforhodamine B); format: cell-based, human; details: 500 μM δ-TP or δ-TT; 30 μM lovastatin; 6-day period
Procedure: MCF-7 (ER(+)), T47D (ER(+)), and MDA-MB-231 (ER(−)) cell lines were from ATCC. Cell lines were maintained at 37°C in a humidified incubator in a 5% CO2-enriched atmosphere in T-75 flasks. […] Cells were grown for 24 h before treatment in phenol red-free medium containing 5% DCC-FCS. Cells were seeded into 96-well plates at 2000 cells/well. Treatment media (150 μl/well) was added on the following day and replaced at 48-h intervals until the end of the experiment. Cell density was measured via the sulforhodamine B method ([43]) after 0, 2, 4, 6, and 8 days. The absorbance of SRB was measured directly at 490 nm in the 96-well plates using a multiskan® multisoft reader from Labsystem.

HMG-CoA reductase (HMGR) = biological target: T1, HMG-CoA reductase (HMGR) (Homo sapiens, UniProt P04035); test: HMG-CoA reductase activity in microsomal fraction of treated cells; format: cell-based; details: MCF-7, T47D and MDA-MB-231 cells treated with 500 μM; compared to solvent vehicle-treated cells
T1 construct: endogenous in cells; host or cells: MCF-7, T47D, MDA-MB-231 (microsomal fraction)
T1 sequence (P04035 1-888): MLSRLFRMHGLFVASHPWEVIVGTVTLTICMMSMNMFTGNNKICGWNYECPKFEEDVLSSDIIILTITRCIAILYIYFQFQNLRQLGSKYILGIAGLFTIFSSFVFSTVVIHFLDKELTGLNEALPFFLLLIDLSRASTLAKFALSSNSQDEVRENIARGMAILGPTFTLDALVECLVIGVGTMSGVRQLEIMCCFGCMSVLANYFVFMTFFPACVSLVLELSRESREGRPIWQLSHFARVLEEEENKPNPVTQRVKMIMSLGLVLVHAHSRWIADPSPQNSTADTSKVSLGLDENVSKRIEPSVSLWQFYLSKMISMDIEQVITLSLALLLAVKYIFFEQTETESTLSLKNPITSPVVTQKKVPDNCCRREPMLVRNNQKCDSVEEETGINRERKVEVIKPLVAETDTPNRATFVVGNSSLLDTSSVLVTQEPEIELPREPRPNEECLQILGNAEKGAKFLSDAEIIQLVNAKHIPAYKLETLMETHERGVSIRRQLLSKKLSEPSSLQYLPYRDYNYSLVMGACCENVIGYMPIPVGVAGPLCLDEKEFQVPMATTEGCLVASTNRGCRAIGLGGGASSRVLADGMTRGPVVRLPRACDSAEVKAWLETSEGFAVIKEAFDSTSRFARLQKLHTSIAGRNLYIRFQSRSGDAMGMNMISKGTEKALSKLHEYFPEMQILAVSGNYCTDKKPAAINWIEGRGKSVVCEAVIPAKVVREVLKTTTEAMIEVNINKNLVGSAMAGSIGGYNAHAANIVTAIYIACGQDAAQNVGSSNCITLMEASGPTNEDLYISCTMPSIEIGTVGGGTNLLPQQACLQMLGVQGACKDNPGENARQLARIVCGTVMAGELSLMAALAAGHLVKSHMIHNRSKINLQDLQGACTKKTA
Procedure: Figure 4 Effect of tocol on ER(+) and ER(−) BC cell proliferation and HMG-CoA reductase activity. (A) Effect of δ-tocols on estrogen and non-estrogen-regulated growth of MCF-7, T47D, and MDA-MB-231 cells. […] Cells were also treated with 30 μM lovastatin (Lova) in the presence or absence of 5 mM M, as described in Section “Materials and Methods.” Values are shown as means and vertical bars represent SEM. The data were analyzed by two-way ANOVA, followed by Bonferroni post hoc test. ***P < 0.001, **P < 0.01, and *P < 0.05 in comparison with control or bare-linked specific control. Ns: not significant. (B) Effect of δ-TT on hydroxymethylglutaryl coenzyme A reductase (HMGR) activity in MCF-7, T47D, and MDA-MB-231 cells. […] Data shown are the mean values ± SEM from three independent experiments performed in triplicate.

| SMILES | luciferase activity as % of the maximal ER-dependent response [1] | effect on MCF-7 cell proliferation (MCF-7 (ER(+)) cells) | effect on HMGR activity (HMG-CoA reductase (HMGR)) |
| --- | --- | --- | --- |
| CC(C)=CCC/C(C)=C/CC/C(C)=C/CC[C@]1(C)CCc2cc(O)cc(C)c2O1 [δ-TT, δ-tocotrienol] | 86.6% | inhibited the proliferation | inhibition of HMGR activity |
| Cc1cc(O)cc2c1OC(C)(CCCC(C)CCCC(C)CCCC(C)C)CC2 (stereo not drawn) [δ-TP, δ-tocopherol] | 76.5% | significant stimulation | not |
